Data on 22 compounds can be found in patent publication US12240855B2, “Pyrrolopyrazole derivative” (DAIICHI SANKYO COMPANY, LIMITED, priority 2019, dated 2025).

For one experiment, the system named is HCT116 cells. Kind of experiment: cells. Conditions: Homo sapiens, HCT-116, 72 h, read-out: Test Example 3 HCT116 GI50.
The test system of experiment [1] is PTDSS2-KO HCT116 cell-subcutaneous transplanted model. In words: Test Example 4: Antitumor activity on PTDSS2-KO HCT116 cell-subcutaneous transplanted model. Conditions: oral, QD × 13, test end date. It is filed as in vivo, female BALB/c-nu/nu mice. From the text:
HCT116 cell-subcutaneous transplanted model PTDSS2-KO HCT116 cells were transplanted to a right subcutaneous axillary portion of female BALB/c-nu/nu mice at a proportion of 1×10^7 cells/head, and when the tumor volume reached 100 to 300 mm^3 (estimated tumor volume (major axis×minor axis×minor axis/2)), mice were divided into groups of 6 or 5 mice each such that there was no difference between groups. The female BALB/c-nu/nu mice were purchased from CHARLES RIVER LABORATORIES JAPAN, INC. The compounds of Examples 58, 57, 53, 30, 42, 32, 34, 33, and 31 were orally administered from the day of grouping in the dosing schedule shown in Table 12 (twice daily, 11 successive days (BID×11), or once daily, 13 successive days (QD×13)). The tumor volume was measured until the next day of completion of the administration (test end date). 0.5% methylcellulose (MC) was administered to the vehicle control group as the vehicle.
TGI %=(1−TVt/TVc)×100 • TGI: Tumor growth suppression rate • TVt: Group mean tumor volume of compound administration group on test end date • TVc: Group mean tumor volume of vehicle control group on test end date

Protocol for HCT116 cells: McCoy's 5A medium containing 10% bovine serum was used as the culture medium for each cell. […] They were added to each well of 384-well plates at 40 nL/well using an Echo555 (Labcyte Inc.). […] On the day of compound addition (day 0) and 3 days after compound addition (day 3), 10 μL/well of CellTiter-Glo® 2.0 Assay (Promega, #G9242), which is a reagent for ATP measurement, was added to each well, and the amount of luminescence in each well was measured with EnVision. From the amount of luminescence on the day of compound addition (C0) and the amount of luminescence of the compound non-addition group (C3) and compound addition group (T3) after 3 days of culture, cell viability was calculated based on the following formula. Cell viability (%)=[(T3−C0)/(C3−C0)]×100

For the compound `O=C1c2[nH]nc(-c3cccc4[nH]c(=O)oc34)c2C(c2ccc(Oc3ccc(Cl)cc3)cc2)N1CC1CC1` (single isomer, unassigned) [Example 2, 7-{4-[4-(4-Chlorophenoxy)phenyl]-5-(cyclopropylmethyl)-6-oxo-1,4,5,6-tetrahydropyrrolo[3,4-c]pyrazol-3-yl}-1,3-benzoxazol-2(3H)-one (enantiomer)], the GI50 with HCT116 cells is 10 µM. For the compound `Cc1nc(C2c3c(-c4cccc5[nH]c(=O)oc45)n[nH]c3C(=O)N2CC(C)(F)F)ccc1F` (single isomer, unassigned) [Example 23, 7-[5-(2,2-Difluoropropyl)-4-(5-fluoro-6-methylpyridin-2-yl)-6-oxo-1,4,5,6-tetrahydropyrrolo[3,4-c]pyrazol-3-yl]-1,3-benzoxazol-2(3H)-one (enantiomer)], the GI50 in the experiment on HCT116 cells was more than 25 µM. `CC(F)(F)CN1C(=O)c2[nH]nc(-c3cccc4[nH]c(=O)oc34)c2C1c1cnc(C(F)(F)F)s1` (single isomer, unassigned) [Example 24, 7-{5-(2,2-Difluoropropyl)-6-oxo-4-[2-(trifluoromethyl)-1,3-thiazol-5-yl]-1,4,5,6-tetrahydropyrrolo[3,4-c]pyrazol-3-yl}-1,3-benzoxazol-2(3H)-one (enantiomer)]: the GI50 in the experiment with HCT116 cells is more than 25 µM. Take `CC(F)(F)CN1C(=O)c2[nH]nc(-c3cccc4[nH]c(=O)oc34)c2C1c1ccc(Oc2cc(C(F)(F)F)cc(C(F)(F)F)c2)cc1F` (single isomer, unassigned) [Example 66, 7-[4-{4-[3,5-Bis(trifluoromethyl)phenoxy]-2-fluorophenyl}-5-(2,2-difluoropropyl)-6-oxo-1,4,5,6-tetrahydropyrrolo[3,4-c]pyrazol-3-yl]-1,3-benzoxazol-2(3H)-one (enantiomer)]: in the experiment on HCT116 cells, the GI50 is more than 25 µM. `CC(F)(F)CN1C(=O)c2[nH]nc(-c3cccc4[nH]c(=O)oc34)c2C1c1ccc(CN2CCC(F)(F)CC2)cc1` (single isomer, unassigned) [Example 83, 7-[4-{4-[(4,4-Difluoropiperidin-1-yl)methyl]phenyl}-5-(2,2-difluoropropyl)-6-oxo-1,4,5,6-tetrahydropyrrolo[3,4-c]pyrazol-3-yl]-1,3-benzoxazol-2(3H)-one (enantiomer)]: the GI50 with HCT116 cells is more than 25 µM.

`CC(F)(F)CN1C(=O)c2[nH]nc(-c3cccc4[nH]c(=O)oc34)c2C1c1ccc(Oc2ccc(OC(F)(F)F)cc2)cc1` (single isomer, unassigned; (-)) [Example 30, (−)-7-[5-(2,2-difluoropropyl)-6-oxo-4-{4-[4-(trifluoromethoxy)phenoxy]phenyl}-1,4,5,6,-tetrahydropyrrolo[3,4-c]pyrazol-3-yl]-1,3-benzoxazol-2-(3H)-one]: the results for the “TGI (%)” value in experiment [1] (10 mg/kg), in experiment [1] (20 mg/kg) and in experiment [1] (40 mg/kg) were 26%, 50% and 83%, respectively.

In the case of `CC(F)(F)CN1C(=O)c2[nH]nc(-c3cccc4[nH]c(=O)oc34)c2C1c1ccc(Oc2ccc(OC(F)(F)F)c(Cl)c2)cc1` (single isomer, unassigned; (-)) [Example 31, (−)-7-[4-{4-[3-chloro-4-(trifluoromethoxy)phenoxy]phenyl}-5-(2,2-difluoropropyl)-6-oxo-1,4,5,6,-tetrahydropyrrolo[3,4-c]pyrazol-3-yl]-1,3-benzoxazol-2-(3H)-one], the “TGI (%)” value in experiment [1] (40 mg/kg) stood at 88%.

Turning to `Cc1cc(Oc2ccc(C3c4c(-c5cccc6[nH]c(=O)oc56)n[nH]c4C(=O)N3CC(C)(F)F)cc2)ccc1OC(F)(F)F` (single isomer, unassigned; (-)) [Example 32, (−)-7-[5-(2,2-difluoropropyl)-4-{4-[3-methyl-4-(trifluoromethoxy)phenoxy]phenyl}-6-oxo-1,4,5,6-tetrahydropyrrolo[3,4-c]pyrazol-3-yl]-1,3-benzoxazol-2(3H)-one], the results for the “TGI (%)” value in experiment [1] (10 mg/kg), in experiment [1] (20 mg/kg) and in experiment [1] (40 mg/kg) were 95%, 98% and 98%, respectively. With `CC(F)(F)CN1C(=O)c2[nH]nc(-c3cccc4[nH]c(=O)oc34)c2C1c1ccc(Oc2cc(Cl)cc(OC(F)(F)F)c2)cc1` (single isomer, unassigned; (-)) [Example 34, (−)-7-[4-{4-[3-Chloro-5-(trifluoromethoxy)phenoxy]phenyl}-5-(2,2-difluoropropyl)-6-oxo-1,4,5,6-tetrahydropyrrolo[3,4-c]pyrazol-3-yl]-1,3-benzoxazol-2(3H)-one], the “TGI (%)” value in experiment [1] (10 mg/kg) is on record as 63%; in experiment [1] (20 mg/kg), 87%; in experiment [1] (40 mg/kg), 96%. Consider `O=C1c2[nH]nc(-c3cccc4[nH]c(=O)oc34)c2C(c2cccc(Oc3ccc(Cl)cn3)c2)N1CC1CC1` (stereo not shown) [Example 3], for which, in the experiment on HCT116 cells, the GI50 was determined as 13 µM. As to `O=C1c2[nH]nc(-c3cccc4[nH]c(=O)oc34)c2C(c2cccc(OC3CCC(F)(F)CC3)c2)N1CC1CC1` (stereo not shown) [Example 7, 7-[5-(Cyclopropylmethyl)-4-{3-[(4,4-difluorocyclohexyl)oxy]phenyl}-6-oxo-1,4,5,6-tetrahydropyrrolo[3,4-c]pyrazol-3-yl]-1,3-benzoxazol-2(3H)-one], the GI50 with HCT116 cells was found to be 15 µM. In the case of `CCC(F)(F)CN1C(=O)c2[nH]nc(-c3cccc4[nH]c(=O)oc34)c2C1c1ccc(F)cc1` (stereo not shown) [Example 11, 7-[5-(2,2-Difluorobutyl)-4-(4-fluorophenyl)-6-oxo-1,4,5,6-tetrahydropyrrolo[3,4-c]pyrazol-3-yl]-1,3-benzoxazol-2(3H)-one], in the experiment with HCT116 cells, the GI50 is more than 25 µM. As to `O=C1c2[nH]nc(-c3cccc4[nH]c(=O)oc34)c2C(c2cccc(Oc3ccccc3)c2)N1Cc1ncco1` (stereo not shown) [Example 12, 7-{5-[(1,3-Oxazol-2-yl)methyl]-6-oxo-4-(3-phenoxyphenyl)-1,4,5,6-tetrahydropyrrolo[3,4-c]pyrazol-3-yl}-1,3-benzoxazol-2(3H)-one], in the experiment with HCT116 cells, the GI50 was more than 25 µM. On the same count and under the same terms, under `O=C1c2[nH]nc(-c3cc(Oc4ccccc4)cc4[nH]c(=O)oc34)c2C(c2ccc(F)cc2)N1CC(F)(F)F` (stereo not shown) [Example 15, 7-[4-(4-Fluorophenyl)-6-oxo-5-(2,2,2-trifluoroethyl)-1,4,5,6-tetrahydropyrrolo[3,4-c]pyrazol-3-yl]-5-phenoxy-1,3-benzoxazol-2(3H)-one] stands more than 25 µM; under `O=C1c2[nH]nc(-c3ccc(F)c4[nH]c(=O)oc34)c2C(c2cc(Oc3ccccc3)ccc2F)N1CC(F)(F)F` (stereo not shown) [Example 16, 4-Fluoro-7-[4-(2-fluoro-5-phenoxy]phenyl)-6-oxo-5-(2,2,2-trifluoroethyl)-1,4,5,6-tetrahydropyrrolo[3,4-c]pyrazol-3-yl-1,3-benzoxazol-2(3H)-one], more than 25 µM. Take `CC(F)(F)CN1C(=O)c2[nH]nc(-c3cccc4[nH]c(=O)oc34)c2C1c1ccnc(Oc2ccccc2)c1` (stereo not shown) [Example 72, 7-[5-(2,2-Difluoropropyl)-6-oxo-4-(2-phenoxypyridin-4-yl)-1,4,5,6-tetrahydropyrrolo[3,4-c]pyrazol-3-yl]-1,3-benzoxazol-2(3H)-one]: the GI50 in the experiment on HCT116 cells was more than 25 µM. The same measure, in the same setting: for `CC(F)(F)CN1C(=O)c2[nH]nc(-c3cccc4[nH]c(=O)oc34)c2C1c1ccc(Oc2ccc(Cl)cc2)cn1` (stereo not shown) [Example 77, 7-{4-[5-(4-Chlorophenoxy)pyridin-2-yl]-5-(2,2-difluoropropyl)-6-oxo-1,4,5,6-tetrahydropyrrolo[3,4-c]pyrazol-3-yl]-1,3-benzoxazol-2(3H)-one] the value was more than 25 µM; for `CC(F)(F)CN1C(=O)c2[nH]nc(-c3cccc4[nH]c(=O)oc34)c2C1c1cc(Oc2ccc(F)cc2)ccn1` (stereo not shown) [Example 78, 7-{5-(2,2-Difluoropropyl)-4-[4-(4-fluorophenoxy)pyridin-2-yl]-6-oxo-1,4,5,6-tetrahydropyrrolo[3,4-c]pyrazol-3-yl}-1,3-benzoxazol-2(3H)-one], more than 25 µM; for `CC(F)(F)CN1C(=O)c2[nH]nc(-c3cccc4[nH]c(=O)oc34)c2C1c1ccc2c(cnn2-c2ccccc2)c1` (stereo not shown) [Example 88, 7-[5-(2,2-Difluoropropyl)-6-oxo-4-(1-phenyl-1H-indazol-5-yl)-1,4,5,6-tetrahydropyrrolo[3,4-c]pyrazol-3-yl]-1,3-benzoxazol-2(3H)-one], 7.9 µM. Same read-out and setting: for `CC(F)(F)CN1C(=O)c2[nH]nc(-c3cccc4[nH]c(=O)oc34)c2C1c1ccc(C(F)(F)c2ccccc2)cc1` (stereo not shown) [Example 91, 7-[4-{4-[Difluoro(phenyl)methyl]phenyl}-5-(2,2-difluoropropyl)-6-oxo-1,4,5,6-tetra hydropyrrolo[3,4-c]pyrazol-3-yl]-1,3-benzoxazol-2(3H)-one] the value was 15 µM. Turning to `CC(F)(F)CN1C(=O)c2[nH]nc(-c3cccc(NC=O)c3)c2C1c1ccc(Cl)cc1` (stereo not shown) [Example 92, N-{3-[4-(4-Chlorophenyl)-5-(2,2-difluoropropyl)-6-oxo-1,4,5,6-tetrahydropyrrolo[3,4-c]pyrazol-3-yl]phenyl}formamide], the GI50 with HCT116 cells is 11 µM. As for `CC(F)(F)CN1C(=O)c2[nH]nc(-c3cccc(NC(N)=O)c3)c2C1c1ccc(Cl)cc1` (stereo not shown) [Example 93, N-{3-[4-(4-Chlorophenyl)-5-(2,2-difluoropropyl)-6-oxo-1,4,5,6-tetrahydropyrrolo[3,4-c]pyrazol-3-yl]phenyl}urea], the GI50 in the experiment with HCT116 cells was more than 25 µM.

As usually defined, the GI50 is the concentration at which growth is held to half of that of the control.
